Measured values published in ChEMBL document CHEMBL6153074, “Discovery of novel dual tubulin and MMPs inhibitors for the treatment of lung cancer and overcoming drug resistance” (Eur J Med Chem, 2025).
pIC50: −log10 of the molar value. Calls of active or inactive are those of the source. The rule behind the calls is not given here.

Key:
[1] = Stability of compound assessed as carboxylesterase (unknown origin)-mediated drug hydrolysis incubated for 4 hrs by RP-HPLC analysis; format: ADME; conditions: human
NCI-H460 = assay: Antiproliferative activity against human NCI-H460 cells by CCK8 assay
A549 [2] = assay: Induction of apoptosis in human A549 cells assessed as late apoptotic cells at 0.25 uM incubated for 24 hrs by Annexin V-FITC/PI staining based flow cytometry (reference value: 1.01 %); format: functional
Tubulin (Homo sapiens) [3] = biological target: T1, Tubulin (Homo sapiens) (UniProt P68371+Q9H4B7+P0DPH7+P68366+Q13509+Q71U36+P04350+Q3ZCM7+P07437+P68363+Q9BQE3+Q6PEY2+Q13885+Q9BVA1+Q9BUF5); assay: Disruption of microtubule network in human A549 cells assessed as cell disorganisation at 2.5 to 5 uM incubated for 24 hrs by immunofluorescence based analysis; conditions: dose 2.5-5 µM
A549 [4] = assay: Anti-migration activity in human A549 cells assessed as migration rate at 0.25 uM incubated for 24 hrs by wound healing assay (reference value: 73.94 %); format: functional
A549 [5] = assay: Induction of apoptosis in human A549 cells assessed as increase in Bax level at 0.5 uM incubated for 24 hrs by Western blot analysis; format: functional, cell-based
A549 [6] = assay: Induction of cell cycle arrest in human A549 cells assessed as decrease in cdc2 by Western blot analysis; format: functional, cell-based
[7] = Stability of compound in DMEM containing 1 percent DMF at pH 7.4 measured for 24 to 72 hrs; format: physicochemical; conditions: buffer, time 24-72 hrs
A549 [8] = assay: Antitumor activity against human A549 cells xenografted in BALB/c mouse at 10 mg/kg, ip for 3 weeks administered on every 2 days relative to control; format: functional; conditions: A549, 504 h, read-out: TGI
[9] = Antiproliferative activity against human MCF-10A cells by CCK8 assay; format: toxicity, cell-based
A549 [10] = assay: Induction of apoptosis in human A549 cells assessed as necrotic cells at 0.5 uM incubated for 24 hrs by Annexin V-FITC/PI staining based flow cytometry (reference value: 0.13 %); format: functional
A549 [11] = assay: cells; conditions: Homo sapiens
Description: Antiproliferative activity against human A549 cells by CCK8 assay

[12] = Toxicity in BALB/c mouse xenografted with human A549 cells assessed as effect on spleen at 10 to 20 mg/kg, ip for 3 weeks administered on every 2 days by H and E staining based analysis; format: organism-based; conditions: in vivo, 504 h, dose 10-20 mg/kg
A549 [13] = assay: Induction of intracellular ROS accumulation in human A549 cells assessed as increase in green fluorescence incubated for 24 hrs by DCFH-DA dye based confocal microscopy; format: functional, cell-based
[14] = Toxicity in BALB/c mouse xenografted with human A549 cells assessed as effect on lung at 10 to 20 mg/kg, ip for 3 weeks administered on every 2 days by H and E staining based analysis; format: organism-based; conditions: in vivo, 504 h, dose 10-20 mg/kg
A549 [15] = assay: Downregulation of NF-kappaB p65 phosphorylation in TNF-alpha-treated human A549 cells by Western blot analysis; format: functional, cell-based
[16] = Stability of compound in PBS at pH 7.4 measured for 24 to 72 hrs; format: physicochemical; conditions: buffer, time 24-72 hrs
A549 [17] = assay: Induction of apoptosis in human A549 cells assessed as increase in cleaved caspase-3 level at 0.5 uM incubated for 24 hrs by Western blot analysis; format: functional, cell-based
A549 [18] = assay: Induction of intracellular ROS accumulation in human A549 cells at 0.5 uM incubated for 24 hrs by DCFH-DA dye based flow cytometry (reference value: 4.96 %); format: functional
Stromelysin-1 = Stromelysin-1 (Homo sapiens, UniProt P08254); assay: Inhibition of MMP-3 (unknown origin) using fluorogenic-McaPro-Leu-Gly-Leu-Dpa-Ala-Arg-NH2 as substrate
Stromelysin-1, sequence (P08254 whole entry): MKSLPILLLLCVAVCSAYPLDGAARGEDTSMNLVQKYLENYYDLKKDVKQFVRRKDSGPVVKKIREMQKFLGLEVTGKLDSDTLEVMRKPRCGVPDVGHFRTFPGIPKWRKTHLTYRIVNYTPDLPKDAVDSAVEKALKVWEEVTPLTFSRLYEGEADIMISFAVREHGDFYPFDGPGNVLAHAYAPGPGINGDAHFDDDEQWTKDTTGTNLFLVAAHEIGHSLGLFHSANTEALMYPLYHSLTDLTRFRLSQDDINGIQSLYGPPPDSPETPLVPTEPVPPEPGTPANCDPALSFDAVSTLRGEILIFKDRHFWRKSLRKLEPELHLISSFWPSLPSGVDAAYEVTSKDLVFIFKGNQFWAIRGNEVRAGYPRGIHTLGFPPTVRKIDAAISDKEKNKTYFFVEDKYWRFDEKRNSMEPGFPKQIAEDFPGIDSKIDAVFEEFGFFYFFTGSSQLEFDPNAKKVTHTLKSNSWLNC

A549 [19] = assay: Induction of apoptosis in human A549 cells assessed as necrotic cells at 0.25 uM incubated for 24 hrs by Annexin V-FITC/PI staining based flow cytometry (reference value: 0.13 %); format: functional
A549 [20] = assay: Induction of cell cycle arrest in human A549 cells assessed as accumulation at G2 phase at 0.25 uM incubated for 24 hrs by PI staining based flow cytometry (reference value: 3.37 %); format: functional
A549 [21] = assay: Antitumor activity against human A549 cells xenografted in BALB/c mouse at 20 mg/kg, ip for 3 weeks administered on every 2 days relative to control; format: functional; conditions: A549, 504 h, read-out: TGI
[22] = Toxicity in BALB/c mouse xenografted with human A549 cells assessed as effect on liver at 10 to 20 mg/kg, ip for 3 weeks administered on every 2 days by H and E staining based analysis; format: organism-based; conditions: in vivo, 504 h, dose 10-20 mg/kg
A549 [23] = assay: Antitumor activity against human A549 cells xenografted in BALB/c mouse assessed as decrease in Ki67 level at 20 mg/kg, ip for 3 weeks administered on every 2 days by IHC analysis; format: functional, organism-based
A549 [24] = assay: Anti-migration activity in human A549 cells assessed as migration rate at 0.5 uM incubated for 24 hrs by wound healing assay (reference value: 73.94 %); format: functional
A549 [25] = assay: Induction of apoptosis in human A549 cells assessed as early apoptotic cells at 0.5 uM incubated for 24 hrs by Annexin V-FITC/PI staining based flow cytometry (reference value: 3.04 %); format: functional
A549 [26] = assay: Anti-angiogenesis effect in human A549 cells assessed as disruption of tube-like network formation at 0.25 to 0.5 uM incubated for 6 hrs by tube formation assay; format: functional, cell-based; conditions: dose 0.25-0.5 µM
MCF7 = assay: Antiproliferative activity against human MCF7 cells by CCK8 assay
A549 [27] = assay: Induction of mitochondrial membrane potential loss in human A549 cells at 0.5 uM incubated for 24 hrs by JC-1 dye based analysis (reference value: 3.14 %); format: functional
A549 [28] = assay: Induction of cell cycle arrest in human A549 cells assessed as accumulation at S phase at 0.25 uM incubated for 24 hrs by PI staining based flow cytometry (reference value: 37.95 %); format: functional
A549 [29] = assay: Induction of apoptosis in human A549 cells assessed as viable cells at 0.5 uM incubated for 24 hrs by Annexin V-FITC/PI staining based flow cytometry (reference value: 95.82 %); format: functional; conditions: read-out: Activity
Tubulin (Homo sapiens) [30] = biological target: T1, Tubulin (Homo sapiens); assay: Disruption of microtubule network in human A549 cells assessed as contraction towards cell border at 2.5 to 5 uM incubated for 24 hrs by immunofluorescence based analysis; conditions: dose 2.5-5 µM
A549 [31] = assay: Induction of apoptosis in human A549 cells assessed as late apoptotic cells at 0.5 uM incubated for 24 hrs by Annexin V-FITC/PI staining based flow cytometry (reference value: 1.01 %); format: functional
[32] = Toxicity in BALB/c mouse xenografted with human A549 cells assessed as effect on kidney at 10 to 20 mg/kg, ip for 3 weeks administered on every 2 days by H and E staining based analysis; format: organism-based; conditions: in vivo, 504 h, dose 10-20 mg/kg
A549 [33] = assay: Induction of cell cycle arrest in human A549 cells assessed as accumulation at S phase at 0.5 uM incubated for 24 hrs by PI staining based flow cytometry (reference value: 37.95 %); format: functional
[34] = Toxicity in BALB/c mouse xenografted with human A549 cells assessed as body weight loss at 10 to 20 mg/kg, ip for 3 weeks administered on every 2 days; format: organism-based; conditions: in vivo, 504 h, dose 10-20 mg/kg

CCOP(=O)(OCC)C(Nc1ccc(CC(=O)Oc2cc(/C=C/C(=O)c3cc(OC)c(OC)c(OC)c3)ccc2OC)cc1)c1cccc([N+](=O)[O-])c1 (configuration not stated)
Stability [1]: Unstable
pIC50 (NCI-H460): 6.73
Activity (A549 [2]): 3.62%
Activity (Tubulin (Homo sapiens) [3]): Active
Activity (A549 [4]): 62.35%
Activity (A549 [5]): Active
Activity (A549 [6]): Active
Stability [7]: Stable
inhibition in vivo at 10 mg/kg (A549 [8]): 53.3%
pIC50 [9]: 5.57
Activity (A549 [10]): 0.93%
pIC50 (A549 [11]): 6.81
Activity [12]: Non-toxic
Activity (A549 [13]): Active
Activity [14]: Non-toxic
Activity (A549 [15]): Active
Stability [16]: Stable
Activity (A549 [17]): Active
Activity (A549 [18]): 70.79%
pIC50 (Stromelysin-1): 4.44
Activity (A549 [19]): 0.3%
Activity (A549 [20]): 37.79%
inhibition in vivo at 20 mg/kg (A549 [21]): 74.7%
Activity [22]: Non-toxic
Activity (A549 [23]): Active
Activity (A549 [24]): 25.17%
Activity (A549 [25]): 34.86%
Activity (A549 [26]): Active
pIC50 (MCF7): 6.60
Activity (A549 [27]): 56.15%
Activity (A549 [28]): 20.12%
viability at 0.5 µM (A549 [29]): 57.9%
Activity (Tubulin (Homo sapiens) [30]): Active
Activity (A549 [31]): 6.34%
Activity [32]: Non-toxic
Activity (A549 [33]): 3.19%
Activity [34]: Non-toxic
